# In patent EP0668759B1, “TRANSDERMAL DELIVERY OF KETOROLAC” (Neurogesx, Inc., priority 1992, dated 1994):
# Key:
# [1] = approximate; cited from earlier work
# [2] = in the presence of light; cited from earlier work
# [3] = water and methanol; cited from earlier work
# [4] = type: in vitro ADME, Human
# Description: Skin permeation rates of various ketorolac/enhancer formulations were determined using flow through diffusion cells with an active area of 1 cm^2 and a receiving column of 3 ml. The receptor fluid, isotonic saline, was pumped into and through the cells by a peristaltic pump. Samples were collected in glass vials arranged in an automatic fraction collector. Human skin was placed on the lower half of the diffusion cell with the stratum corneum facing the donor compartment. The test solution or transdermal device was placed on the stratum corneum and the amount of drug permeated across the skin (µg/cm^2·hr) was calculated from the cumulative release.
compound,measurement,setting,value
O=C(c1ccccc1)c1ccc2n1CCC2C(=O)O (racemic) [ketorolac],half-life,[1],~4 h
same,stability to light,[2],degrades in the presence of light
O=C(c1ccccc1)c1ccc2n1CCC2C(=O)O (stereo not shown) [Ketorolac tromethamine],solubility,[3],freely soluble in water and methanol
O=C(c1ccccc1)c1ccc2n1CC[C@@H]2C(=O)O [(-) ketorolac],permeability to human skin,[4],as permeable to human skin as the racemate
